Measurements published in patent publication US12410171B2, “Tropomyosin receptor kinase (TRK) degradation compounds and methods of use” (Cullgen (Shanghai), Inc., priority 2020, dated 2025).

Biological target: T1, TPM3-TRKA fusion protein (Homo sapiens, UniProt P04629)
T1 construct: The resulted chimeric proteins always retain the kinase domain of TRK proteins; TPM3 (fusion partner, N-terminal part of tropomyosin alpha-3, P06753); endogenous in cells; host or cells: KM12 colon cancer cells; the other entry of the earlier key: TPM3 (P06753, Tropomyosin alpha-3 chain)
Test: TPM3-TRKA fusion protein levels in KM12 cells (Western blot)
Format: cell-based
Details: 16 h; TPM3-TRKA degradation in KM12 cells at 10 nM compound, category of percentage degradation; read-out: Degradation (at 10 nM)
In short: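 TPM3-TRKA levels were assessed by Western blot with chemiluminescent detection and band densitometry, after SDS-PAGE of BCA-normalized RIPA lysates. Before lysis, KM12 cells received DMSO, compounds or matched control compounds at concentrations including 0.1, 1, 10 and 100 nM and 0.4–30 nM. Exposures lasted 4 h, 8–16 h or 16 h.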

T1 sequence (P04629 with tags, fused parts or gaps): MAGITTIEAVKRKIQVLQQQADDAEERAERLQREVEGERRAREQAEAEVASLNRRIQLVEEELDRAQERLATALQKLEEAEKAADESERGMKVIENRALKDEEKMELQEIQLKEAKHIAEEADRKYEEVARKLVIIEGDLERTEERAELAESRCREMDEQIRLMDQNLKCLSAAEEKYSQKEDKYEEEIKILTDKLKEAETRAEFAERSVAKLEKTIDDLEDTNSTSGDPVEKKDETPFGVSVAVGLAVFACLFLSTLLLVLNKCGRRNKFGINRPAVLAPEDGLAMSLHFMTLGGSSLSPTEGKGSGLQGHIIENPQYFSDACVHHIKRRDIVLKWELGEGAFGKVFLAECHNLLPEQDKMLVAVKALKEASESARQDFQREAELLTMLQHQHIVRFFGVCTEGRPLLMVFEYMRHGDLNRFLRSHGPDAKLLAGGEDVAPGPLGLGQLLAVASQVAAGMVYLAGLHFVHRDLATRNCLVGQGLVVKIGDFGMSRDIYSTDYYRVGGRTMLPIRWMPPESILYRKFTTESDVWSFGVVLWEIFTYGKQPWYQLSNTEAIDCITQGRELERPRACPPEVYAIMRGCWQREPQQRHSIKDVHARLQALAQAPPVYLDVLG

Row | percent degradation of TPM3-TRKA protein at 0.01 µM | Compound
1 | > 80% | O=C1CCC(N2C(=O)c3cccc(NCCOCCOCCOCCOCCOCCC(=O)N4CCN(c5ccc(C(=O)Nc6n[nH]c7ccc(Cc8cc(F)cc(F)c8)cc67)c(NC6CCOCC6)c5)CC4)c3C2=O)C(=O)N1 (centres unmarked) [CPD-054, N-(5-(3,5-Difluorobenzyl)-1H-indazol-3-yl)-4-(4-(1-((2-(2,6-dioxopiperidin-3-yl)-1,3-dioxoisoindolin-4-yl)amino)-3,6,9,12, 15-pentaoxaoctadecan-18-oyl)piperazin-1-yl)-2-((tetrahydro-2H-pyran-4-yl)amino)benzamide]
2 | > 80% | O=C1CCC(N2C(=O)c3cccc(NCCOCCOCCOCCOCCC(=O)N4CCN(c5ccc(C(=O)Nc6n[nH]c7ccc(Cc8cc(F)cc(F)c8)cc67)c(NC6CCOCC6)c5)CC4)c3C2=O)C(=O)N1 (centres unmarked) [CPD-031, N-(5-(3,5-Difluorobenzyl)-1H-indazol-3-yl)-4-(4-(1-((2-(2,6-dioxopiperidin-3-yl)-1,3-dioxoisoindolin-4-yl)amino)-3,6,9,12-tetraoxapentadecan-15-oyl)piperazin-1˜yl)-2-((tetrahydro-2H-pyran-4-yl)amino)benzamide]
3 | > 80% | O=C(CN1CCN(c2ccc(C(=O)Nc3n[nH]c4ccc(Cc5cc(F)cc(F)c5)cc34)c(NC3CCOCC3)c2)CC1)NCCOCCOCCOCCNc1cccc2c1C(=O)N(C1CCC(=O)NC1=O)C2=O (stereo not drawn) [CPD-064, N—(S-(3,5-Difluorobenzyl)-1H-indazol-3-yl)-4-(4-(14-((2-(2,6-dioxopiperidin-3-yl)-1,3-dioxoisoindolin-4-yl)amino)-2-oxo-6,9,12-trioxa-3-azatetradecyl)piperazin-1-yl)-2-((tetrahydro-2H-pyran-4-yl)amino)benzamide]
4 | > 80% | O=C1CCC(N2C(=O)c3cccc(NCCCC(=O)N4CCN(c5cccc(-c6cnc7ccc(N8CCC[C@@H]8c8cccc(F)c8)nn67)n5)CC4)c3C2=O)C(=O)N1 (stereo partly drawn) [CPD-013, 2-(2,6-Dioxopiperidin-3-yl)-4-((4-(4-(6-(6-((R)-2-(3-fluorophenyl)pyrrolidin-1-yl)imidazo[1,2-b]pyridazin-3-yl)pyridin-2-yl)piperazin-1-yl)-4-oxobutyl)amino) isoindoline-1,3-dione]

Further lines, the compound ahead of its results:

Row | Compound | percent degradation of TPM3-TRKA protein at 0.01 µM
5 | O=C1CCC(N2C(=O)c3ccc(NCCOCCC(=O)N4CCN(c5cccc(-c6cnc7ccc(N8CCC[C@@H]8c8cccc(F)c8)nn67)n5)CC4)cc3C2=O)C(=O)N1 (stereo partly drawn) [TR-119, 2-(2,6-Dioxopiperidin-3-yl)-5-((2-(3-(4-(6-(6-((R)-2-(3-fluorophenyl)pyrrolidin-1-yl)imidazo[1,2-b]pyridazin-3-yl)pyridin-2-yl)piperazin-1-yl)-3-oxopropoxy)ethyl)amino) isoindoline-1,3-dione] | > 80%
6 | O=C(CN1CCN(c2cccc(-c3cnc4ccc(N5CCC[C@@H]5c5cccc(F)c5)nn34)n2)CC1)NCCCNc1cccc2c1C(=O)N(C1CCC(=O)NC1=O)C2=O (stereo partly drawn) [TR-109, N-(3-((2-(2,6-dioxopiperidin-3-yl)-1,3-dioxoisoindolin-4-yl)amino)propyl)-2-(4-(6-(6-((R)-2-(3-fluorophenyl)pyrrolidin-1-yl)imidazo[1,2-b]pyridazin-3-yl)pyridin-2-yl)piperazin-1-yl)acetamide] | > 80%
7 | O=C1CCC(N2C(=O)c3ccc(NCCCC(=O)N4CCN(c5ccc(C(=O)Nc6n[nH]c7ccc(Cc8cc(F)cc(F)c8)cc67)c(NC6CCOCC6)c5)CC4)cc3C2=O)C(=O)N1 (centres unmarked) [TR-169, N-(5-(3,5-Difluorobenzyl)-1H-indazol-3-yl)-4-(4-(4-((2-(2,6-dioxopiperidin-3-yl)-1,3-dioxoisoindolin-S-yl)amino)butanoyl)piperazin-1-yl)-2-((tetrahydro-2/-pyran-4-yl)amino)benzamide] | > 80%
8 | O=C(CN1CCN(c2ccc(C(=O)Nc3n[nH]c4ccc(Cc5cc(F)cc(F)c5)cc34)c(NC3CCOCC3)c2)CC1)NCCCNc1cccc2c1C(=O)N(C1CCC(=O)NC1=O)C2=O (centres unmarked) [TR-152, N-(5-(3,5-Difluorobenzyl)-1H-indazol-3-yl)-4-(4-(2-((3-((2-(2,6-dioxopiperidin-3,3-yl)-1,3-dioxoisoindolin-4-yl)amino)propyl)amino)-2-oxocthyl)piperazin-1-yl)-2-((tetrahydro-2H-pyran-4-yl)amino)benzamide] | > 80%
9 | O=C1CCC(N2C(=O)c3ccc(NCCOCCOCCC(=O)N4CCN(c5cccc(-c6cnc7ccc(N8CCC[C@@H]8c8cccc(F)c8)nn67)n5)CC4)cc3C2=O)C(=O)N1 (stereo partly drawn) [TR-113, 2-(2,6-Dioxopiperidin-3-yl)-5-((2-(2-(3-(4-(6-(6-((R)-2˜ (3-fluorophenyl)pyrrolidin-1-yl)imidazo[1,2-b]pyridazin-3-yl)pyridin-2-yl)piperazin-1-yl)-3-oxopropoxy)ethoxy)ethyl)amino) isoindoline-1,3-dione] | > 80%
10 | O=C1CCC(N2C(=O)c3ccc(NCCC(=O)N4CCN(c5ccc(C(=O)Nc6n[nH]c7ccc(Cc8cc(F)cc(F)c8)cc67)c(NC6CCOCC6)c5)CC4)cc3C2=O)C(=O)N1 (stereo not drawn) [TR-145, N—(S-(3,5-Difluorobenzyl)-1H-indazol-3-yl)-4-(4-(3-((2-(2,6-dioxopiperidin-3-yl)-1,3-dioxoisoindolin-S-yl)amino)propanoyl)piperazin-1-yl)-2-((tetrahydro-2H-pyran-4-yl)amino)benzamide] | > 80%
11 | O=C(CN1CCN(c2ccc(C(=O)Nc3n[nH]c4ccc(Cc5cc(F)cc(F)c5)cc34)c(NC3CCOCC3)c2)CC1)NCCNc1ccc2c(c1)C(=O)N(C1CCC(=O)NC1=O)C2=O (centres unmarked) [TR-165, N-(5-(3,5-Difluorobenzyl)-1H-indazol-3-yl)-4-(4-(2-((2-((2-(2,6-dioxopiperidin-3-yl)-1,3-dioxoisoindolin-5-yl)amino)ethyl)amino)-2-oxoethyl)piperazin-1-yl)-2-((tetrahydro-2H-pyran-4-yl)amino)benzamide] | > 80%
12 | O=C(CN1CCN(c2cccc(-c3cnc4ccc(N5CCC[C@@H]5c5cccc(F)c5)nn34)n2)CC1)NCCCCNc1cccc2c1C(=O)N(C1CCC(=O)NC1=O)C2=O (stereo partly drawn) [TR-107, N-(4-((2-(2,6-dioxopiperidin-3-yl)-1,3-dioxoisoindolin-4-yl)amino)butyl)-2-(4-(6-(6-((R)-2-(3-fluorophenyl)pyrrolidin-1-yl)imidazo[1,2-b]pyridazin-3-yl)pyridin-2-yl)piperazin-1-yl)acetamide] | > 80%
13 | O=C(CN1CCN(c2ccc(C(=O)Nc3n[nH]c4ccc(Cc5cc(F)cc(F)c5)cc34)c(NC3CCOCC3)c2)CC1)NCCOCCOCCNc1ccc2c(c1)C(=O)N(C1CCC(=O)NC1=O)C2=O (centres unmarked) [TR-162, N-(5-(3,5-Difluorobenzyl)-1H-indazol-3-yl)-4-(4-(2-((2-(2-(2-((2-(2,6-dioxopiperidin-3-yl)-1,3-dioxoisoindolin-5-yl)amino)ethoxy)ethoxy)ethyl)amino)-2-oxocthyl)piperazin-1-yl)-2-((tetrahydro-2H-pyran-4-yl)amino)benzamide] | > 80%
14 | O=C1CCC(N2C(=O)c3ccc(NCCCCCC(=O)N4CCN(c5cccc(-c6cnc7ccc(N8CCC[C@@H]8c8cccc(F)c8)nn67)n5)CC4)cc3C2=O)C(=O)N1 (stereo partly drawn) [TR-122, 2-(2,6-Dioxopiperidin-3-yl)-5-((6-(4-(6-(6-((R)-2-(3-fluorophenyl)pyrrolidin-1-yl)imidazo[1,2-b]pyridazin-3-yl)pyridin-2-yl)piperazin-1-yl)-6-oxohexyl)amino) isoindoline-1,3-dione] | > 80%
